Data: US10717716B2, “1,3,4-oxadiazole derivative compounds as histone deacetylase 6 inhibitor, and the pharmaceutical composition comprising the same” (Chong Kun Dang Pharmaceutical Corp., priority 2015, dated 2020)

Molecular target: T1, human recombinant HDAC6 (Homo sapiens, UniProt Q9UBN7)
T1 construct: purchased Calbiochem 382180
T1 sequence (Q9UBN7 1-1215): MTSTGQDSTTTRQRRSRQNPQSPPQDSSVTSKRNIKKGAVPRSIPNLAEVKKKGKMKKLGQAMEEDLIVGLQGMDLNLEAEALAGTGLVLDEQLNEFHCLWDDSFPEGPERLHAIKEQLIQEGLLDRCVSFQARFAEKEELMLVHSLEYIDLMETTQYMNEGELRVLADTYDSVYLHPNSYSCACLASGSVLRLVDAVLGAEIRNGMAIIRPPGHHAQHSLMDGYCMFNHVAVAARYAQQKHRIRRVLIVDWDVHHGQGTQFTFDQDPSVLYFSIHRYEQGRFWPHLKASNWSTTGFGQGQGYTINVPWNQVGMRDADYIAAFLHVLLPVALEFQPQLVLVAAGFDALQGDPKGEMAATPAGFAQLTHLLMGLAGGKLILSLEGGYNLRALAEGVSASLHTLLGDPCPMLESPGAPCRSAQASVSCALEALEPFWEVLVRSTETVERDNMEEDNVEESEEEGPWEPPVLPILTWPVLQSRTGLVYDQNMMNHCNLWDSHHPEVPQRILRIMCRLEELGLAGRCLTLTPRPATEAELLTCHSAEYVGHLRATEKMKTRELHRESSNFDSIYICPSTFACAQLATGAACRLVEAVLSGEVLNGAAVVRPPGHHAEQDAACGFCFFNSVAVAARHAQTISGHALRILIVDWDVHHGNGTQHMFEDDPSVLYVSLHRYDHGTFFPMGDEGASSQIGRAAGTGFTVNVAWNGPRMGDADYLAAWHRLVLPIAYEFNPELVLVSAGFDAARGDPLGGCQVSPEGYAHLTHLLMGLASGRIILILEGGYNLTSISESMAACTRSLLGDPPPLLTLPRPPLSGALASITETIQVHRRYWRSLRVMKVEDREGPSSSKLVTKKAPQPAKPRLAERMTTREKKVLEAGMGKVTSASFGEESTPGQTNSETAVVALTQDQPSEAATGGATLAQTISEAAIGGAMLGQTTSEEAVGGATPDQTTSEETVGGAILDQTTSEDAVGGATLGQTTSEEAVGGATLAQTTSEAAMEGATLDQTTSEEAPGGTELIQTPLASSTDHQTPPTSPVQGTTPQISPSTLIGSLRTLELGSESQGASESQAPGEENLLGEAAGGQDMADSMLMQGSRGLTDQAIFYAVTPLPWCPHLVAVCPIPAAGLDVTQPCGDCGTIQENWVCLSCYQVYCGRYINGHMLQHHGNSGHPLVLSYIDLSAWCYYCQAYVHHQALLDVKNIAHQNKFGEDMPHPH
Assay: HDAC6 enzyme activity inhibition assay (HDAC Fluorimetric Drug Discovery Kit)
Assay type: biochemical
Conditions: for HDAC6 selectivity (fold): HDAC6 over HDAC1; for IC50: human recombinant HDAC6, same protocol as HDAC1, read-out: HDAC6
Summary of the method: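 Fluorimetric deacetylase assay: 5-fold serial compound dilutions, 0.3 μg recombinant human enzyme (HDAC1 or HDAC6, same protocol), 10 μM Fluor de Lys-SIRT1 substrate, 60 min at 30 °C. Signal developed 30 min, measured at 360/460 nm; IC50 values derived.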

HDAC6 selectivity (fold)	IC50	Compound
15 fold	667 nM	CCN1C[C@@H](C)N(Cc2ccc(N(Cc3ccc(-c4nnc(C(F)F)o4)cc3F)C(=O)N3CCS(=O)(=O)CC3)cc2)[C@@H](C)C1 [Compound 21934, N-(4-(5-(difluoromethyl)-1,3,4-oxadiazol-2-yl)-2-fluorobenzyl)-N-(4-(((2R,6S)-4-ethyl-2,6-dimethylpiperazin-1-yl)methyl)phenyl)thiomorpholine-4-carboxamide 1,1-dioxide]
38 fold	265 nM	CCN1[C@H](C)CN(Cc2ccc(N(Cc3ccc(-c4nnc(C(F)F)o4)cc3F)C(=O)N3CCS(=O)(=O)CC3)cc2)C[C@@H]1C [Compound 21935, N-(4-(5-(difluoromethyl)-1,3,4-oxadiazol-2-yl)-2-fluorobenzyl)-N-(4-(((3S,5R)-4-ethyl-3,5-dimethylpiperazin-1-yl)methyl)phenyl)thiomorpholine-4-carboxamide 1,1-dioxide]
91 fold	110 nM	O=C(N1CCN(C2COC2)CC1)N(Cc1ccc(-c2nnc(C(F)F)o2)cc1)c1cccc(F)c1 [Compound 21936, N-(4-(5-(Difluoromethyl)-1,3,4-oxadiazol-2-yl)benzyl)-N-(3-fluorophenyl)-4-(oxetan-3-yl)piperazine-1-carboxamide]
153 fold	65 nM	O=C(N1CCN(C2COC2)CC1)N(Cc1ccc(-c2nnc(C(F)F)o2)cc1F)c1cccc(F)c1 [Compound 21937, N-(4-(5-(Difluoromethyl)-1,3,4-oxadiazol-2-yl)-2-fluorobenzyl)-N-(3-fluorophenyl)-4-(oxetan-3-yl)piperazine-1-carboxamide]
122 fold	82 nM	O=C(N1CCN(C2COC2)CC1)N(Cc1ccc(-c2nnc(C(F)F)o2)cn1)c1cccc(F)c1 [Compound 21938, N-((5-(5-(Difluoromethyl)-1,3,4-oxadiazol-2-yl)pyridin-2-yl)methyl)-N-(3-fluorophenyl)-4-(oxetan-3-yl)piperazine-1-carboxamide]
62 fold	161 nM	O=C(N1CCN(C2COC2)CC1)N(Cc1ccc(-c2nnc(C(F)F)o2)cc1)c1ccc(F)cc1 [Compound 21939, N-(4-(5-(Difluoromethyl)-1,3,4-oxadiazol-2-yl)benzyl)-N-(4-fluorophenyl)-4-(oxetan-3-yl)piperazine-1-carboxamide]
118 fold	85 nM	O=C(N1CCN(C2COC2)CC1)N(Cc1ccc(-c2nnc(C(F)F)o2)cc1F)c1ccc(F)cc1 [Compound 21940, N-(4-(5-(Difluoromethyl)-1,3,4-oxadiazol-2-yl)-2-fluorobenzyl)-N-(4-fluorophenyl)-4-(oxetan-3-yl)piperazine-1-carboxamide]
160 fold	62 nM	O=C(N1CCN(C2COC2)CC1)N(Cc1ccc(-c2nnc(C(F)F)o2)cc1)c1cccc(Cl)c1 [Compound 21942, N-(3-Chlorophenyl)-N-(4-(5-(difluoromethyl)-1,3,4-oxadiazol-2-yl)benzyl)-4-(oxetan-3-yl)piperazine-1-carboxamide]
201 fold	50 nM	O=C(N1CCN(C2COC2)CC1)N(Cc1ccc(-c2nnc(C(F)F)o2)cn1)c1cccc(Cl)c1 [Compound 21944, N-(3-Chlorophenyl)-N-((5-(5-(difluoromethyl)-1,3,4-oxadiazol-2-yl)pyridin-2-yl)methyl)-4-(oxetan-3-yl)piperazine-1-carboxamide]
52 fold	193 nM	O=C(N1CCN(C2COC2)CC1)N(Cc1ccc(-c2nnc(C(F)F)o2)cc1)c1ccc(Cl)cc1 [Compound 21945, N-(4-Chlorophenyl)-N-(4-(5-(difluoromethyl)-1,3,4-oxadiazol-2-yl)benzyl)-4-(oxetan-3-yl)piperazine-1-carboxamide]
81 fold	123 nM	O=C(N1CCN(C2COC2)CC1)N(Cc1ccc(-c2nnc(C(F)F)o2)cc1F)c1ccc(Cl)cc1 [Compound 21946, N-(4-Chlorophenyl)-N-(4-(5-(difluoromethyl)-1,3,4-oxadiazol-2-yl)-2-fluorobenzyl)-4-(oxetan-3-yl)piperazine-1-carboxamide]
112 fold	90 nM	O=C(N1CCN(C2COC2)CC1)N(Cc1ccc(-c2nnc(C(F)F)o2)cn1)c1ccc(Cl)cc1 [Compound 21947, N-(4-Chlorophenyl)-N-((5-(5-(difluoromethyl)-1,3,4-oxadiazol-2-yl)pyridin-2-yl)methyl)-4-(oxetan-3-yl)piperazine-1-carboxamide]
64 fold	157 nM	COc1cccc(N(Cc2ccc(-c3nnc(C(F)F)o3)cn2)C(=O)N2CCN(C3COC3)CC2)c1 [Compound 21950, N-((5-(5-(Difluoromethyl)-1,3,4-oxadiazol-2-yl)pyridin-2-yl)methyl)-N-(3-methoxyphenyl)-4-(oxetan-3-yl)piperazine-1-carboxamide]
26 fold	391 nM	COc1ccc(N(Cc2ccc(-c3nnc(C(F)F)o3)cc2)C(=O)N2CCN(C3COC3)CC2)cc1 [Compound 21951, N-(4-(5-(Difluoromethyl)-1,3,4-oxadiazol-2-yl)benzyl)-N-(4-methoxyphenyl)-4-(oxetan-3-yl)piperazine-1-carboxamide]
58 fold	172 nM	COc1ccc(N(Cc2ccc(-c3nnc(C(F)F)o3)cc2F)C(=O)N2CCN(C3COC3)CC2)cc1 [Compound 21952, N-(4-(5-(Difluoromethyl)-1,3,4-oxadiazol-2-yl)-2-fluorobenzyl)-N-(4-methoxyphenyl)-4-(oxetan-3-yl)piperazine-1-carboxamide]
62 fold	160 nM	COc1ccc(N(Cc2ccc(-c3nnc(C(F)F)o3)cn2)C(=O)N2CCN(C3COC3)CC2)cc1 [Compound 21953, N-((5-(5-(Difluoromethyl)-1,3,4-oxadiazol-2-yl)pyridin-2-yl)methyl)-N-(4-methoxyphenyl)-4-(oxetan-3-yl)piperazine-1-carboxamide]
113 fold	89 nM	O=C(N1CCN(C2COC2)CC1)N(Cc1ccc(-c2nnc(C(F)F)o2)cc1F)c1ccccc1 [Compound 21955, N-(4-(5-(Difluoromethyl)-1,3,4-oxadiazol-2-yl)-2-fluorobenzyl)-4-(oxetan-3-yl)-N-phenylpiperazine-1-carboxamide]
60 fold	167 nM	O=C(NCCN1CCCC1)N(Cc1ccc(-c2nnc(C(F)F)o2)cc1F)c1ccccc1 [Compound 21956, 1-(4-(5-(Difluoromethyl)-1,3,4-oxadiazol-2-yl)-2-fluorobenzyl)-1-phenyl-3-(2-(pyrrolidin-1-yl)ethyl)urea]
116 fold	86 nM	O=C(NCCN1CCCCC1)N(Cc1ccc(-c2nnc(C(F)F)o2)cc1F)c1ccccc1 [Compound 21957, 1-(4-(5-(Difluoromethyl)-1,3,4-oxadiazol-2-yl)-2-fluorobenzyl)-1-phenyl-3-(2-(piperidin-1-yl)ethyl)urea]
115 fold	87 nM	CN1CCN(CCNC(=O)N(Cc2ccc(-c3nnc(C(F)F)o3)cc2F)c2ccccc2)CC1 [Compound 21958, 1-(4-(5-(Difluoromethyl)-1,3,4-oxadiazol-2-yl)-2-fluorobenzyl)-3-(2-(4-methylpiperazin-1-yl)ethyl)-1-phenylurea]
6 fold	1550 nM	CN1CCC(c2ccc(N(Cc3ccc(-c4nnc(C(F)F)o4)cc3F)C(=O)N3CCS(=O)(=O)CC3)cc2)CC1 [Compound 21970, N-(4-(5-(difluoromethyl)-1,3,4-oxadiazol-2-yl)-2-fluorobenzyl)-N-(4-(1-methylpiperidin-4-yl)phenyl)thiomorpholine-4-carboxamide 1,1-dioxide]
